Reference: paper PMC12521909, “Camizestrant in Combination with Three Globally Approved CDK4/6 Inhibitors in Women with ER+, HER2− Advanced Breast Cancer: Results from SERENA-1” (Clinical Cancer Research, 2025)

Columns and labels:
[1] = Plasma pharmacokinetics by validated LC/MS-MS (cycle 1, day 15); assay type: in vivo; conditions: human, oral; for AUC / Cmax: Cycle 1 Day 15, geomean; for Tmax: Cycle 1 Day 15, median
Experimental: Details of safety and efficacy assessments and of ctDNA sampling and assessments have been described previously ([37]). For PK analyses, plasma concentrations of camizestrant, abemaciclib, palbociclib, and ribociclib were determined using validated LC/MS-MS.
Details of assessments and analysis sets have been described previously ([38]). Briefly, safety was assessed in the safety analysis set, and efficacy and antitumor activity were assessed in the evaluable-for-response set. PK was assessed in the PK analysis set, which included all patients who provided at least one quantifiable postdose PK concentration for either camizestrant or any of the other agents evaluated.

[2] = test system: women with ER+, HER2− advanced breast cancer; assay: Digital, centrally read triplicate ECGs (resting heart rate, QTcF); set-up: species or system human; conditions: in vivo
From the text: Digital, centrally read, triplicate ECGs were obtained throughout the study.

[3] = 75 mg, camizestrant 75 mg monotherapy
[4] = 150 mg, camizestrant 150 mg monotherapy
[5] = 300 mg, camizestrant 300 mg monotherapy
[6] = camizestrant 75 mg + abemaciclib
[7] = camizestrant 75 mg + palbociclib
[8] = camizestrant 75 mg + ribociclib (400 mg)
[9] = camizestrant 75 mg + ribociclib (600 mg)
[10] = camizestrant 150 mg + abemaciclib
[11] = camizestrant 150 mg + palbociclib
[12] = camizestrant 300 mg + palbociclib

C[C@@H]1Cc2c(ccc3[nH]ncc23)[C@@H](c2ccc(NC3CN(CCCF)C3)cn2)N1CC(F)(F)F [camizestrant]
AUC [1, 3]: 862 ng·h/mL
Cmax [1, 3]: 64.7 ng/mL
Tmax [1, 3]: 3.72 h
AUC [1, 4]: 2160 ng·h/mL
Cmax [1, 4]: 166 ng/mL
Tmax [1, 4]: 2.17 h
AUC [1, 5]: 4780 ng·h/mL
Cmax [1, 5]: 376 ng/mL
Tmax [1, 5]: 3 h
half-life ([1]; across combinations, PK sampled up to 24 hours, likely underestimated, read-out: Estimated half-life of camizestrant): 9.5 to 17 h
AUC [1, 6]: 1120 ng·h/mL
Cmax [1, 6]: 85.4 ng/mL
Tmax [1, 6]: 4 h
AUC [1, 7]: 1200 ng·h/mL
Cmax [1, 7]: 93.9 ng/mL
Tmax [1, 7]: 4 h
AUC [1, 8]: 2280 ng·h/mL
Cmax [1, 8]: 154 ng/mL
Tmax [1, 8]: 3.6 h
AUC [1, 9]: 2750 ng·h/mL
Cmax [1, 9]: 179 ng/mL
Tmax [1, 9]: 4 h
AUC [1, 10]: 2050 ng·h/mL
Cmax [1, 10]: 159 ng/mL
Tmax [1, 10]: 4 h
AUC [1, 11]: 2420 ng·h/mL
Cmax [1, 11]: 189 ng/mL
Tmax [1, 11]: 3.92 h
AUC [1, 12]: 4940 ng·h/mL
Cmax [1, 12]: 386 ng/mL
Tmax [1, 12]: 4 h
Time of gradual decrease in resting HR to stable nadir [2]: approximately 14 days
